“And” between values parts separate entries of the source, which are not always exact repeats. Identical values can stand only once.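 Protocol summary: plate cells (96-well), add compound at 5 concentrations, incubate 48 h, interpolate endpoints linearly. GI50 marks 50% less growth. The concentration for full growth arrest is given as TGI.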

One assay relates to KM12 colon. The experiment in a line: NCI-60 cell line screen, 48 h.
`C[C@@]12C[C@@H](c3ccccc3O1)N1CCCCSC1=N2` yielded a TGI greater than 100 µM.
Still for that read-out and setting: with `C=C1c2nc3ccccc3n2C=C(c2ccccc2)N1c1ccc([N+](=O)[O-])cc1` the figure was 13.8 µM; with `C[C@]12CC[C@H](O)CC1=CC[C@@H]1C2CC[C@]2(C)C(=O)N(N)C(=O)CC12` (stereo partly specified), greater than 100 µM.
For the compound `Cc1c2cnccc2c(C)c2c1c1ccccc1n2CCCN`, the GI50 is 37.4 nM; the TGI was 0.815 µM and 0.286 µM.
The compound `O=c1[nH][nH]c(=O)n1Cc1ccccc1Cn1c(=O)[nH][nH]c1=O` returned a TGI greater than 100 µM.
On the same count and under the same terms, with `O=C(NNC(=O)c1ccccc1SSc1ccccc1C(=O)NNC(=O)c1ccccc1S)c1ccccc1S` the figure was greater than 100 µM; with `Cc1nc(C(N)=S)sc1/C(CC(=O)C(=O)Nc1cccc2ccc(O)cc12)=N\NC(=O)c1ccncc1`, greater than 100 µM; with `CN1CCN([C@H]2C[C@H]3[C@@H]4CC=C5C[C@@H](O)CC[C@]5(C)[C@H]4CC[C@]3(C)C2=O)CC1`, greater than 100 µM.
Same read-out and setting: with `C=C(C1=CC(=O)C(C)(C)O1)[C@@H]1CC=C([C@@H]2CC[C@H]3[C@@]2(C)CC[C@H]2C(C)(C)C(=O)[C@H](O)C[C@]32C)[C@H](O)O1` the figure was 20.4 µM; with `C(/c1ccco1)=c1/nc(-c2ccccc2)n2c1nc1ccccc12`, greater than 100 µM; with `CCNC(=S)N/N=C/c1cc([N+](=O)[O-])ccc1O`, greater than 100 µM.
The same measure, in the same setting: with `Cc1cc(O)c2c(=O)c3ccccc3[nH]c2c1` the figure was greater than 100 µM; with `Oc1cccc2c(Cl)ccnc12`, 82.3 µM; with `Clc1cc(OC2C3CC4CC(C3)CC2C4)nc(Cl)n1` (stereo unspecified), 39.1 µM.
For `COc1cc([C@@H]2c3cc4c(cc3[C@@H](Nc3ccc([N+](=O)[O-])cc3C(=O)c3ccccc3)[C@H]3COC(=O)[C@H]23)OCO4)cc(OC)c1OC`, the TGI is greater than 100 µM.
Still for that read-out and setting: with `CCN(CC)CCC(=O)Nc1ccc2c(c1)C(=O)c1ccc(NC(=O)CCN(CC)CC)cc1C2=O` the figure was 4.57 µM; with `COc1nc(N)c(C(=O)CCl)c(=O)n1C`, 30.4 µM.

The subject of a further assay is SNB-19 CNS. The experiment in a line: NCI-60 cell line screen, 48 h.
Consider `C[C@@]12C[C@@H](c3ccccc3O1)N1CCCCSC1=N2`, for which the TGI is greater than 100 µM.
Same read-out and setting: the figure for `C=C1c2nc3ccccc3n2C=C(c2ccccc2)N1c1ccc([N+](=O)[O-])cc1` is 24.4 µM; for `C[C@]12CC[C@H](O)CC1=CC[C@@H]1C2CC[C@]2(C)C(=O)N(N)C(=O)CC12` (stereo partly specified) it is greater than 100 µM.
As for `Cc1c2cnccc2c(C)c2c1c1ccccc1n2CCCN`, the GI50 was 94.5 nM; the TGI is 2.19 µM and 0.781 µM.
For the compound `O=c1[nH][nH]c(=O)n1Cc1ccccc1Cn1c(=O)[nH][nH]c1=O`, the TGI is greater than 100 µM.
Same read-out and setting: with `O=C(NNC(=O)c1ccccc1SSc1ccccc1C(=O)NNC(=O)c1ccccc1S)c1ccccc1S` the figure was greater than 100 µM; with `Cc1nc(C(N)=S)sc1/C(CC(=O)C(=O)Nc1cccc2ccc(O)cc12)=N\NC(=O)c1ccncc1`, greater than 100 µM; with `CN1CCN([C@H]2C[C@H]3[C@@H]4CC=C5C[C@@H](O)CC[C@]5(C)[C@H]4CC[C@]3(C)C2=O)CC1`, greater than 100 µM.
Regarding `C=C(C1=CC(=O)C(C)(C)O1)[C@@H]1CC=C([C@@H]2CC[C@H]3[C@@]2(C)CC[C@H]2C(C)(C)C(=O)[C@H](O)C[C@]32C)[C@H](O)O1`, the TGI turned out to be 24.8 µM.
Same read-out and setting: the figure for `C(/c1ccco1)=c1/nc(-c2ccccc2)n2c1nc1ccccc12` is greater than 100 µM; for `CCNC(=S)N/N=C/c1cc([N+](=O)[O-])ccc1O` it is greater than 100 µM; for `Cc1cc(O)c2c(=O)c3ccccc3[nH]c2c1` it is greater than 100 µM.
The same measure, in the same setting: with `Oc1cccc2c(Cl)ccnc12` the figure was greater than 100 µM; with `Clc1cc(OC2C3CC4CC(C3)CC2C4)nc(Cl)n1` (stereo unspecified), greater than 100 µM.
Same read-out and setting: the figure for `Cc1cccc2c(=O)cc(-c3ccccc3)[nH]c12` is greater than 100 µM; for `COc1cc([C@@H]2c3cc4c(cc3[C@@H](Nc3ccc([N+](=O)[O-])cc3C(=O)c3ccccc3)[C@H]3COC(=O)[C@H]23)OCO4)cc(OC)c1OC` it is greater than 100 µM.
As to `CCN(CC)CCC(=O)Nc1ccc2c(c1)C(=O)c1ccc(NC(=O)CCN(CC)CC)cc1C2=O`, the TGI was 18.6 µM.
On the same count and under the same terms, the figure for `COc1nc(N)c(C(=O)CCl)c(=O)n1C` is 52 µM; for `COc1ccc2c(=O)c(O)c(-c3ccc(OC)c(OC)c3)oc2c1` it is greater than 100 µM.

The next assay relates to TK-10 renal. Put plainly: NCI-60 cell line screen, 48 h.
Consider `C[C@@]12C[C@@H](c3ccccc3O1)N1CCCCSC1=N2`, for which the TGI is greater than 100 µM.
Still for that read-out and setting: with `C=C1c2nc3ccccc3n2C=C(c2ccccc2)N1c1ccc([N+](=O)[O-])cc1` the figure was 22.1 µM.
Regarding `C[C@]12CC[C@H](O)CC1=CC[C@@H]1C2CC[C@]2(C)C(=O)N(N)C(=O)CC12` (stereo partly specified), the TGI is greater than 100 µM.
On the same count and under the same terms, with `Cc1c2cnccc2c(C)c2c1c1ccccc1n2CCCN` the figure was 1.83 µM.
The same measure, in the same setting: with `O=c1[nH][nH]c(=O)n1Cc1ccccc1Cn1c(=O)[nH][nH]c1=O` the figure was greater than 100 µM; with `O=C(NNC(=O)c1ccccc1SSc1ccccc1C(=O)NNC(=O)c1ccccc1S)c1ccccc1S`, greater than 100 µM; with `Cc1nc(C(N)=S)sc1/C(CC(=O)C(=O)Nc1cccc2ccc(O)cc12)=N\NC(=O)c1ccncc1`, greater than 100 µM.
`CN1CCN([C@H]2C[C@H]3[C@@H]4CC=C5C[C@@H](O)CC[C@]5(C)[C@H]4CC[C@]3(C)C2=O)CC1` registered a TGI greater than 100 µM.
`C=C(C1=CC(=O)C(C)(C)O1)[C@@H]1CC=C([C@@H]2CC[C@H]3[C@@]2(C)CC[C@H]2C(C)(C)C(=O)[C@H](O)C[C@]32C)[C@H](O)O1` came in with a TGI of 2.64 µM.
Still for that read-out and setting: the figure for `C(/c1ccco1)=c1/nc(-c2ccccc2)n2c1nc1ccccc12` is greater than 100 µM; for `CCNC(=S)N/N=C/c1cc([N+](=O)[O-])ccc1O` it is 79.8 µM.
On the same count and under the same terms, with `Cc1cc(O)c2c(=O)c3ccccc3[nH]c2c1` the figure was greater than 100 µM.
On the same count and under the same terms, with `Oc1cccc2c(Cl)ccnc12` the figure was greater than 100 µM; with `Clc1cc(OC2C3CC4CC(C3)CC2C4)nc(Cl)n1` (stereo unspecified), greater than 100 µM; with `Cc1cccc2c(=O)cc(-c3ccccc3)[nH]c12`, greater than 100 µM.
As to `COc1cc([C@@H]2c3cc4c(cc3[C@@H](Nc3ccc([N+](=O)[O-])cc3C(=O)c3ccccc3)[C@H]3COC(=O)[C@H]23)OCO4)cc(OC)c1OC`, the TGI was greater than 100 µM.
On the same count and under the same terms, with `CCN(CC)CCC(=O)Nc1ccc2c(c1)C(=O)c1ccc(NC(=O)CCN(CC)CC)cc1C2=O` the figure was 18.9 µM; with `COc1nc(N)c(C(=O)CCl)c(=O)n1C`, 29 µM; with `COc1ccc2c(=O)c(O)c(-c3ccc(OC)c(OC)c3)oc2c1`, 45.8 µM.

The next assay has as its system UACC-257 melanoma. The experiment in a line: NCI-60 cell line screen, 48 h.
`C[C@@]12C[C@@H](c3ccccc3O1)N1CCCCSC1=N2`: the TGI is greater than 100 µM.
Same read-out and setting: with `C=C1c2nc3ccccc3n2C=C(c2ccccc2)N1c1ccc([N+](=O)[O-])cc1` the figure was 63.4 µM.
On to `C[C@]12CC[C@H](O)CC1=CC[C@@H]1C2CC[C@]2(C)C(=O)N(N)C(=O)CC12` (stereo partly specified), for which the TGI is greater than 100 µM.
For `Cc1c2cnccc2c(C)c2c1c1ccccc1n2CCCN`, the GI50 is 633 nM; the TGI is 2.32 µM and 1.92 µM.
As for `O=c1[nH][nH]c(=O)n1Cc1ccccc1Cn1c(=O)[nH][nH]c1=O`, the TGI is greater than 100 µM.
The same measure, in the same setting: the figure for `O=C(NNC(=O)c1ccccc1SSc1ccccc1C(=O)NNC(=O)c1ccccc1S)c1ccccc1S` is greater than 95.4 µM.
Regarding `Cc1nc(C(N)=S)sc1/C(CC(=O)C(=O)Nc1cccc2ccc(O)cc12)=N\NC(=O)c1ccncc1`, the TGI was greater than 100 µM.
Still for that read-out and setting: the figure for `CN1CCN([C@H]2C[C@H]3[C@@H]4CC=C5C[C@@H](O)CC[C@]5(C)[C@H]4CC[C@]3(C)C2=O)CC1` is greater than 100 µM.
`C=C(C1=CC(=O)C(C)(C)O1)[C@@H]1CC=C([C@@H]2CC[C@H]3[C@@]2(C)CC[C@H]2C(C)(C)C(=O)[C@H](O)C[C@]32C)[C@H](O)O1` registered a TGI of 4.52 µM.
The same measure, in the same setting: with `C(/c1ccco1)=c1/nc(-c2ccccc2)n2c1nc1ccccc12` the figure was greater than 100 µM; with `CCNC(=S)N/N=C/c1cc([N+](=O)[O-])ccc1O`, greater than 100 µM.
On the same count and under the same terms, with `Cc1cc(O)c2c(=O)c3ccccc3[nH]c2c1` the figure was 54.2 µM.
On the same count and under the same terms, the figure for `Oc1cccc2c(Cl)ccnc12` is 12.1 µM.
`Clc1cc(OC2C3CC4CC(C3)CC2C4)nc(Cl)n1` (stereo unspecified) came in with a TGI of 27.4 µM.
On the same count and under the same terms, with `Cc1cccc2c(=O)cc(-c3ccccc3)[nH]c12` the figure was greater than 100 µM; with `COc1cc([C@@H]2c3cc4c(cc3[C@@H](Nc3ccc([N+](=O)[O-])cc3C(=O)c3ccccc3)[C@H]3COC(=O)[C@H]23)OCO4)cc(OC)c1OC`, greater than 100 µM; with `CCN(CC)CCC(=O)Nc1ccc2c(c1)C(=O)c1ccc(NC(=O)CCN(CC)CC)cc1C2=O`, 29.7 µM.
On the same count and under the same terms, with `COc1nc(N)c(C(=O)CCl)c(=O)n1C` the figure was 31.3 µM; with `COc1ccc2c(=O)c(O)c(-c3ccc(OC)c(OC)c3)oc2c1`, greater than 100 µM.

A further assay concerns HCT-116 colon. Put plainly: NCI-60 cell line screen, 48 h.
Compound `C[C@@]12C[C@@H](c3ccccc3O1)N1CCCCSC1=N2` returned a TGI greater than 100 µM.
Same read-out and setting: with `C=C1c2nc3ccccc3n2C=C(c2ccccc2)N1c1ccc([N+](=O)[O-])cc1` the figure was 35.2 µM.
On the same count and under the same terms, the figure for `C[C@]12CC[C@H](O)CC1=CC[C@@H]1C2CC[C@]2(C)C(=O)N(N)C(=O)CC12` (stereo partly specified) is greater than 100 µM.
As to `Cc1c2cnccc2c(C)c2c1c1ccccc1n2CCCN`, the GI50 was 121 nM; the TGI was 0.609 µM and 0.628 µM.
Turning to `O=c1[nH][nH]c(=O)n1Cc1ccccc1Cn1c(=O)[nH][nH]c1=O`, the TGI is greater than 100 µM.
The same measure, in the same setting: with `O=C(NNC(=O)c1ccccc1SSc1ccccc1C(=O)NNC(=O)c1ccccc1S)c1ccccc1S` the figure was greater than 65.1 µM.
As to `Cc1nc(C(N)=S)sc1/C(CC(=O)C(=O)Nc1cccc2ccc(O)cc12)=N\NC(=O)c1ccncc1`, the TGI is greater than 100 µM.
Same read-out and setting: with `CN1CCN([C@H]2C[C@H]3[C@@H]4CC=C5C[C@@H](O)CC[C@]5(C)[C@H]4CC[C@]3(C)C2=O)CC1` the figure was greater than 100 µM; with `C=C(C1=CC(=O)C(C)(C)O1)[C@@H]1CC=C([C@@H]2CC[C@H]3[C@@]2(C)CC[C@H]2C(C)(C)C(=O)[C@H](O)C[C@]32C)[C@H](O)O1`, 3 µM.
As for `C(/c1ccco1)=c1/nc(-c2ccccc2)n2c1nc1ccccc12`, the TGI came out at 71.1 µM.
The same measure, in the same setting: the figure for `CCNC(=S)N/N=C/c1cc([N+](=O)[O-])ccc1O` is 40.8 µM.
Same read-out and setting: with `Cc1cc(O)c2c(=O)c3ccccc3[nH]c2c1` the figure was 65.2 µM; with `Oc1cccc2c(Cl)ccnc12`, 15.2 µM; with `Clc1cc(OC2C3CC4CC(C3)CC2C4)nc(Cl)n1` (stereo unspecified), 27.5 µM.
Same read-out and setting: the figure for `Cc1cccc2c(=O)cc(-c3ccccc3)[nH]c12` is greater than 100 µM; for `COc1cc([C@@H]2c3cc4c(cc3[C@@H](Nc3ccc([N+](=O)[O-])cc3C(=O)c3ccccc3)[C@H]3COC(=O)[C@H]23)OCO4)cc(OC)c1OC` it is greater than 100 µM; for `CCN(CC)CCC(=O)Nc1ccc2c(c1)C(=O)c1ccc(NC(=O)CCN(CC)CC)cc1C2=O` it is 10.1 µM.
As for `COc1nc(N)c(C(=O)CCl)c(=O)n1C`, the TGI came out at 31.3 µM.
